Source: ChEMBL document CHEMBL1159282, “Secondary Mold Metabolites, Part 49. Isolation, Structural Elucidation, and Biomimetic Synthesis of Trametol, a New 1-Arylpropane-1,2-diol Produced by the Fungus Trametes sp” (J Nat Prod, 1995)
Calls of active or inactive are those of the source.

Columns and labels:
Format in all cases: functional, organism-based
[1] = test system: Bacillus cereus; assay: Antimicrobial activity against Bacillus cereus at 150 ug/disk
[2] = test system: Bacillus subtilis; assay: Antimicrobial activity against Bacillus subtilis at 150 ug/disk
[3] = test system: Escherichia coli; assay: Antimicrobial activity against Escherichia coli at 150 ug/disk
[4] = test system: Saccharomyces cerevisiae; assay: Antimicrobial activity against Saccharomyces cerevisiae at 150 ug/disk
[5] = test system: Cladosporium cladosporioides; assay: Antimicrobial activity against Cladosporium cladosporioides at 150 ug/disk

Measured: Activity

COc1ccc([C@@H](O)[C@H](C)O)cc1Cl
inactive: [1] | [2] | [3] | [4] | [5]
